Assay results published in BindingDB's records for doi:10.1016/S1074-5521(02)00240-5 (Nippon Roche Research Center, 2002).
pIC50: −log10 of the molar value.

What was measured:
[1] = molecular target: T1, Glycylpeptide N-tetradecanoyltransferase (Candida albicans (strain SC5314 / ATCC MYA-2876), UniProt P30418); test: Inhibition Assay
T1 sequence (P30418 whole entry): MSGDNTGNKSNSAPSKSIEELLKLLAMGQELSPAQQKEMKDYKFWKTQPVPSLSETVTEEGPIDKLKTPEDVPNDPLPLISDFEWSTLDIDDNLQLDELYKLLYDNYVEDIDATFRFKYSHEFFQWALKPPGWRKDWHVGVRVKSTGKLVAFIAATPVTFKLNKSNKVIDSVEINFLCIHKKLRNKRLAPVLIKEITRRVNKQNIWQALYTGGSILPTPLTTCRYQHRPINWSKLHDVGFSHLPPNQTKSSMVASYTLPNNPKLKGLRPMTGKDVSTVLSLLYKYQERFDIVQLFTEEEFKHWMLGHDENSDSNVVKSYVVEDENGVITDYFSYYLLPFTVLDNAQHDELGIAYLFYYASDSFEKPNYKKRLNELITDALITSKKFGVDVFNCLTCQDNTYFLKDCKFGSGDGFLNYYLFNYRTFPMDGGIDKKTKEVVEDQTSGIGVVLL

[2] = molecular target: T2, Glycylpeptide N-tetradecanoyltransferase 1 (Homo sapiens, UniProt P30419); test: Inhibition Assay
T2 sequence (P30419 whole entry): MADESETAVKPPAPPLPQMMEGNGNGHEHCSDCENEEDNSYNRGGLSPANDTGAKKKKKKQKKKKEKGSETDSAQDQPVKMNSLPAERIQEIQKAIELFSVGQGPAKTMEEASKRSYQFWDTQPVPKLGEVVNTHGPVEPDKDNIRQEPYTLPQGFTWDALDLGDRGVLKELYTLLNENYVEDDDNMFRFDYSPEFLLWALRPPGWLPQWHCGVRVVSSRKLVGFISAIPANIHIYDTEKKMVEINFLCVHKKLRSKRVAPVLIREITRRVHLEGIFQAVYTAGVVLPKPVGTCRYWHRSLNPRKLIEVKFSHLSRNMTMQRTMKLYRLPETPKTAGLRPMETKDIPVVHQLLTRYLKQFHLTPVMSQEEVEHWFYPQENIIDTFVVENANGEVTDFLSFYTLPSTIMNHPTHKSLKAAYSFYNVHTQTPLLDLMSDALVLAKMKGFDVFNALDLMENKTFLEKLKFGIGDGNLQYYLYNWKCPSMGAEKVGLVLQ

pIC50 [1] | pIC50 [2] | SMILES
6.08 | – | COc1ccc(C(=O)NN=Cc2ccccc2C(=O)O)cc1OC [2-[(veratroylhydrazono)methyl]benzoic acid]
5.96 | < 3.24 | O=C(Nc1ccc(S(=O)(=O)NC2=NCCCCC2)cc1)C1COc2ccccc2O1 (stereo not drawn) [MLS000761278]
